PMC11212140, “Molecular Bidents with Two Electrophilic Warheads as a New Pharmacological Modality” (ACS Central Science, 2024)
Where two headings read alike, the source gives them in different places.

Legend:
[1] = test system: CaMK2a, CaMK2b, CaMK2d, CaMK2g; assay: KiNativ profiling in H3255 cells; type: cell-based; conditions: 2.5 µM; Lys2; DLKPENLLLASK
Description: (§1) H3255 cells were plated with 6.5x10^6 per condition in fresh media in 15 cm plates and treated the 80% confluency for 2 hours with DMSO or 2.5 μM of ZNL-0056. To harvest cells, plates were washed 3 times with cold PBS, then collected by scraping into 4 mL of cold PBS containing protease and phosphatase inhibitors. Cells were pelleted by centrifugation at 1350 g at 4 ℃ for 5 minutes and immediately frozen in liquid nitrogen. The frozen samples were sent to ActivX Biosciences (La Jolla, CA) for the remainder of the KiNativ profiling experiment4. […]

[2] = test system: CDK11, CDK8; assay: KiNativ profiling in H3255 cells; type: cell-based, human; conditions: 2.5 µM; Lys2; DLKPANILVMGEGPER
[3] = test system: T1, ARAF; assay: KiNativ profiling in H3255 cells; type: cell-based, human; conditions: 2.5 µM; Lys2; DLKSNNIFLHEGLTVK
T1 construct: purchased ActivX Biosciences (KiNativ)
Description: as §1

[4] = test system: T2, ATM; assay: KiNativ profiling in H3255 cells; type: cell-based, human; conditions: 2.5 µM; ATP; QLVKGRDDLRQDAVMQQVFQMCNTLLQR
T2 construct: purchased ActivX Biosciences (KiNativ)
Description: as §1

[5] = test system: T3, CASK; assay: KiNativ profiling in H3255 cells; type: cell-based, human; conditions: 2.5 µM; Lys1; ETGQQFAVKIVDVAK
T3 construct: purchased ActivX Biosciences (KiNativ)
Description: as §1

[6] = test system: T4, CDK9; assay: KiNativ profiling in H3255 cells; type: cell-based, human; conditions: 2.5 µM
T4 construct: purchased ActivX Biosciences (KiNativ)
Description: as §1

[7] = test system: T5, CRK7; assay: KiNativ profiling in H3255 cells; type: cell-based, human; conditions: 2.5 µM; Lys2; DIKCSNILLNNSGQIK
T5 construct: purchased ActivX Biosciences (KiNativ)
Description: as §1

[8] = test system: T6, EphA1; assay: KiNativ profiling in H3255 cells; type: cell-based, human; conditions: 2.5 µM; Activation Loop; LLDDFDGTYETQGGKIPIR
T6 construct: purchased ActivX Biosciences (KiNativ)
Description: as §1

[9] = test system: T7, HER3/ErbB3; assay: KiNativ profiling in H3255 cells; type: cell-based, human; conditions: 2.5 µM
T7 construct: purchased ActivX Biosciences (KiNativ)
Description: as §1

[10] = test system: T8, LYN; assay: KiNativ profiling in H3255 cells; type: cell-based, human; conditions: 2.5 µM
T8 construct: purchased ActivX Biosciences (KiNativ)
Description: as §1

[11] = test system: T9, MAP2K3; assay: KiNativ profiling in H3255 cells; type: cell-based, human; conditions: 2.5 µM
T9 construct: purchased ActivX Biosciences (KiNativ)
Description: as §1

[12] = test system: T10, MAP3K2; assay: KiNativ profiling in H3255 cells; type: cell-based, human; conditions: 2.5 µM; Lys1; ELAVKQVQFDPDSPETSKEVNALECEIQLLK
T10 construct: purchased ActivX Biosciences (KiNativ)
Description: as §1

[13] = test system: T11, MAPKAPK3; assay: KiNativ profiling in H3255 cells; type: cell-based, human; conditions: 2.5 µM; ATP Loop; QVLGLGVNGKVLECFHR
T11 construct: purchased ActivX Biosciences (KiNativ)
Description: as §1

[14] = test system: PCTAIRE1, PCTAIRE3; assay: KiNativ profiling in H3255 cells; type: cell-based, human; conditions: 2.5 µM; Lys2; DLKPQNLLINER
Description: as §1

[15] = test system: T12, PEK; assay: KiNativ profiling in H3255 cells; type: cell-based, human; conditions: 2.5 µM; Lys2; DLKPSNIFFTMDDVVK
T12 construct: purchased ActivX Biosciences (KiNativ)
Description: as §1

[16] = test system: PI4KA, PI4KAP2; assay: KiNativ profiling in H3255 cells; type: cell-based, human; conditions: 2.5 µM; ATP; SGTPMQSAAKAPYLAK
Description: as §1

[17] = test system: T13, ROCK1; assay: KiNativ profiling in H3255 cells; type: cell-based, human; conditions: 2.5 µM; Other; KLQLELNQER
T13 construct: purchased ActivX Biosciences (KiNativ)
Description: as §1

[18] = test system: T14, eEF2K; assay: KiNativ profiling in H3255 cells; type: cell-based, human; conditions: 2.5 µM; ATP; YIKYNSNSGFVR
T14 construct: purchased ActivX Biosciences (KiNativ)
Description: as §1

[19] = test system: T15, p38b; assay: KiNativ profiling in H3255 cells; type: cell-based, human; conditions: 2.5 µM; Other; QELNKTVWEVPQR
T15 construct: purchased ActivX Biosciences (KiNativ)
Description: as §1

[20] = test system: T16, IKKb; assay: KiNativ profiling in H3255 cells; type: cell-based, human; conditions: 2.5 µM
T16 construct: purchased ActivX Biosciences (KiNativ)

[21] = test system: T17, JAK1 domain1; assay: KiNativ profiling in H3255 cells; type: cell-based, human; conditions: 2.5 µM; Activation Loop; QLASALSYLEDKDLVHGNVCTKNLLLAR
T17 construct: JAK1 domain1; purchased ActivX Biosciences (KiNativ)

[22] = test system: T18, CDK2; assay: KiNativ profiling in H3255 cells; type: cell-based, human; conditions: 2.5 µM
T18 construct: purchased ActivX Biosciences (KiNativ)
Description: as §1
(§2) Human EGFR kinase domain (residues 696-1022) with T790M and V948R mutations was cloned with an N-terminal, protease cleavable His -GST tag. Recombinant protein was expressed in SF9 insect cells using baculovirus generated from the pFastBac system (Thermo Fisher) .
(§3) Briefly, cells at a density of ~2x10^6 cells/mL were infected with 1% (v/v) virus stock and grown for ~72 hours before harvesting and freezing the cell pellet . Infected cells were lysed in buffer A (50 mM Tris pH 8.0, 500 mM NaCl, 5% glycerol, 0.5 mM Tris(2-carboxyethyl)phosphine [TCEP]), ultracentrifuged at >200,000 rcf for 1 h, and the supernatant flo wed through Ni-NTA resin by gravity. The resin was washed with buffer A supplemented with 40 mM imidazole by […]

[23] = test system: FGFR1, FMS, PDGFRb, TYRO3; assay: KiNativ profiling in H3255 cells; type: cell-based, human; conditions: 2.5 µM; Lys1; VAVKMLK
Description: as §1, §2, §3

[24] = test system: T19, MET; assay: KiNativ profiling in H3255 cells; type: cell-based, human; conditions: 2.5 µM; Activation Loop; DMYDKEYYSVHNK
T19 construct: purchased ActivX Biosciences (KiNativ)
Description: as §1, §2, §3

[25] = test system: EGFR^L858R/C797S Ba/F3 cells; assay: Antiproliferation assay (CellTiter-Glo); type: cell-based
Excerpt: (§4) (1 picture or pasted object on this page, not shown here)
protease and phosphatase inhibitors.
Protein expression and purification

[26] = Glutathione (GSH) reactivity; type: in vitro ADME; conditions: glutathione (GSH) in buffer; read-out: half-life of conjugation with glutathione (GSH)
Description: Table S3. Glutathione (GSH) reactivity of ZNL-0056
*NGSH1440: the abbreviation of no glutathione. No glutathione is added into NGSH sample
(replaced by buffer) during the 24 hour-incubation R2 is the correlation coefficient of the linear
regression for the determination of kinetic constant.
as §4

[27] = Activation Loop, SPSQVQVADFGVADLLPPDDKQLLYSEAKTPIK
[28] = Activation Loop, EGAKFPIKWTAPEAINFGCFTIK
[29] = Activation Loop, MCDFGISGYLVDSVAKTMDAGCKPYMAPER

Structure (SMILES) | Inhibition [1] | Inhibition [2] | Inhibition [3] | Inhibition [4] | Inhibition [5] | Inhibition ([6]; ATP Loop, IGQGTFGEVFKAR) | Inhibition ([6]; Lys2, DMKAANVLITR) | Inhibition [7] | Inhibition [8] | Inhibition [9, 27] | Inhibition ([9]; Lys1, GVWIPEGESIKIPVCIKVIEDK) | Inhibition [10, 28] | Inhibition ([10]; Lys1, VAVKTLKPGTMSVQAFLEEANLMK) | Inhibition [11, 29] | Inhibition ([11]; Lys2, DVKPSNVLINK) | Inhibition [12] | Inhibition [13] | Inhibition [14] | Inhibition [15] | Inhibition [16] | other results
C=CC(=O)Nc1cc(Nc2nccc(-c3cn(C)c4ccccc34)n2)c(OC)cc1N(C)CCN(C)C [Osimertinib, osimertinib, reference compound] | 3.2% | 24.8% | -20.1% | 24.6% | 6.8% | 12.0% | 22.6% | 31.9% | 5.8% | -24.2% | -64.6% | 7.2% | -3.5% | -14.4% | -14.5% | -20.3% | -14.1% | 8.7% | 7.8% | 30.1% | Inhibition [17]: -7.6%; Inhibition [18]: -9.7%; Inhibition [19]: 7.2%; Inhibition ([20]; Lys1, WHNQETGEQIAIKQCR): -16.0%; Inhibition ([20]; Lys2, DLKPENIVLQQGEQR): -28.9%; Inhibition [21]: -25.4%; Inhibition ([22]; Lys1, LTGEVVALKK): 14.1%; Inhibition ([22]; Lys2, DLKPQNLLINTEGAIK): 9.6%; Inhibition [23]: 0.6%; Inhibition [24]: -2.3%; activity loss in cells dependent on EGFR^C797S for growth [25]: 300 fold; half-life [26]: 49 min
C=CC(=O)Nc1cc(C(=O)Nc2nc3cccc(C)c3n2[C@@H]2CCCCN(C(=O)C=C)C2)cs1 [ZNL-0056] | -8.1% | -0.339% | 11.3% | -1.9% | -14.3% | -9.9% | 16.6% | -9.2% | -5.3% | 25.6% | -12.4% | -13.3% | -8.7% | 11.1% | -14.4% | 12.2% | 4.1% | -3.3% | -15.1% | -23.5% | Inhibition [17]: -20.4%; Inhibition [18]: -31.5%; Inhibition [19]: -8.8%; Inhibition ([20]; Lys1, WHNQETGEQIAIKQCR): 11.2%; Inhibition ([20]; Lys2, DLKPENIVLQQGEQR): 2.0%; Inhibition [21]: -24.3%; Inhibition ([22]; Lys1, LTGEVVALKK): 0.6%; Inhibition ([22]; Lys2, DLKPQNLLINTEGAIK): 13.1%; Inhibition [23]: -17.7%; Inhibition [24]: -17.6%; activity loss in cells dependent on EGFR^C797S for growth ([25]; vs EGFR^L858R Ba/F3): 50 fold; half-life [26]: 36 min
